Paper PMC4890880 (ACS infectious diseases, 2016)
Read-outs that look alike come from different tables or passages of the source.

Key:
HepG2-A16-CD81EGFP cells [1] = test: cells; settings: Homo sapiens; for IC50: HepG2, read-out: Tox IC50; for inhibition at 50 µM: HepG2, read-out: Tox max inhibition (%) @ 50 uM; for inhibition at 10 µM: HepG2, read-out: Tox max inhibition (%) @ 10 uM
[2] = system: Plasmodium berghei (Pb-Luc) exoerythrocytic-stage parasites; test: microbe, parasite or virus in culture; settings: for inhibition at 10 µM: read-out: PbLuc max inhibition (%) @ 10 uM
[3] = molecular target: QuantiLum Recombinant Luciferase (Photinus pyralis, UniProt P08659); test: Bioluminescence quantification of compound luciferase inhibition; settings: for Emax: read-out: LucInhib max inhibition
HepG2-A16-CD81EGFP cells [4] = test: cells; settings: Homo sapiens, HepG2, read-out: % inhibition
HepG2-A16-CD81EGFP cells [5] = settings: human, 50 uM
[6] = HepG2, read-out: HepG2 Tox% @ 50 uM rep1
[7] = HepG2, read-out: HepG2 Tox% @ 50 uM rep2
[8] = read-out: Inhibition% @ 50 uM rep1
[9] = read-out: Inhibition% @ 50 uM rep2
[10] = read-out: PbLuc IC50, dose response, 1/3 dilutions, max conc. 10 or 50 uM, unit inferred
[11] = read-out: PbLuc max inhibition (%) @ 50 uM
[12] = read-out: PbLuc IC50, dose response, unit inferred

Sequence of QuantiLum Recombinant Luciferase (P08659 whole entry): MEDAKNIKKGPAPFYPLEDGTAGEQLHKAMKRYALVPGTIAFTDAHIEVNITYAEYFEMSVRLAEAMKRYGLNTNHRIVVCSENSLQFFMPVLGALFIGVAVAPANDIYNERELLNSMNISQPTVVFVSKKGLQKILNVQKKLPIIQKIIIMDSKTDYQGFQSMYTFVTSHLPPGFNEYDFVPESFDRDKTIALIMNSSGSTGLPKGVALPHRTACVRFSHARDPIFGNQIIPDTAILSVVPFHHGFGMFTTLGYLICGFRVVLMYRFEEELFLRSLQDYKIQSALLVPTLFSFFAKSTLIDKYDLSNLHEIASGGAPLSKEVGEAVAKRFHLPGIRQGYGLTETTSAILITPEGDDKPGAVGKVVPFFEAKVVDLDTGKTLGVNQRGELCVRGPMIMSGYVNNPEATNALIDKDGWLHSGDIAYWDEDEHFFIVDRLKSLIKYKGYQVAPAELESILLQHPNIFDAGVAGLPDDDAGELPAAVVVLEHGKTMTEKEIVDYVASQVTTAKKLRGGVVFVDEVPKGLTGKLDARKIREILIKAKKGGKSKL

Row | SMILES | cytotoxicity at 50 µM (HepG2-A16-CD81EGFP cells [1]; [6]) | cytotoxicity at 50 µM (HepG2-A16-CD81EGFP cells [1]; [7]) | IC50 (HepG2-A16-CD81EGFP cells [1]) | inhibition at 50 µM (HepG2-A16-CD81EGFP cells [1]) | inhibition at 50 µM [2, 8] | inhibition at 50 µM [2, 9] | IC50 [2, 10] | inhibition at 50 µM [2, 11] | IC50 [3] | Emax [3] | inhibition at 10 µM (HepG2-A16-CD81EGFP cells [1]) | inhibition at 10 µM [2] | IC50 [2, 12] | inhibition at 50 µM (HepG2-A16-CD81EGFP cells [4]) | HepG2 Tox% @ 50 uM rep1 (HepG2-A16-CD81EGFP cells [5]) | HepG2 Tox% @ 50 uM rep2 (HepG2-A16-CD81EGFP cells [5])
1 | COc1cccc(NC(=O)[C@H](C(C)C)n2c(=O)[nH]c3ccccc3c2=O)c1 [MMV665878] | 12% | 4.53% | > 50 µM | 13% | 102% | 102% | 13.2 µM | 101% | > 50 µM | 28% | – | – | – | – | – | –
2 | Cc1ccc(Cn2c(N3CCC(C(=O)NCc4cccs4)CC3)nc3ccccc32)cc1 [MMV007564] | 97% | 99% | > 50 µM | 69% | 104% | 105% | 2.09 µM | 106% | > 50 µM | 27% | – | – | – | – | – | –
3 | COc1ccccc1N1C(=N)SC(=Cc2ccc(OCc3ccccc3F)cc2)C1=O [MMV007199] | 14% | – | > 50 µM | 24% | 102% | 101% | 1.82 µM | 106% | > 50 µM | 25% | – | – | – | – | – | –
4 | C=CCc1c(C)nc2ccccc2c1O [MMV006913] | -8% | -5% | > 10 µM | – | 100% | 97% | 0.292 µM | – | > 20 µM | 38% | 15% | 108% | – | – | – | –
5 | COc1cccc(C(=O)Nc2ccc(-c3nc4ccccc4[nH]3)cc2)c1 [MMV019762] | -16% | – | > 10 µM | – | -94% | -91% | – | – | > 20 µM | -3% | 9% | 31% | > 10 µM | – | – | –
6 | Cc1sc(NC(=O)c2ccccc2)c(C(c2cccs2)N2CCN(c3ccccc3)CC2)c1C (centres unmarked) [MMV396652] | 14% | – | > 50 µM | 28% | 99% | 99% | 4.07 µM | 97% | > 50 µM | 33% | – | – | – | – | – | –
7 | COCCn1c(C)nc2ccccc2c1=O [MMV665904] | 1.26% | -3% | > 10 µM | – | 100% | 102% | 1.99 µM | – | > 20 µM | 13% | 22% | 90% | – | – | – | –
8 | O=[N+]([O-])c1ccc(C=NNc2nc3ccccc3[nH]2)cc1 [MMV666607] | 14% | 20% | > 10 µM | – | -47% | -99% | – | – | > 20 µM | 30% | 5% | -2.2% | > 10 µM | – | – | –
9 | O=C(Nc1ccc(-c2nc3ccccc3[nH]2)cc1)c1ccc(Cl)c(Cl)c1 [MMV665840] | -7% | – | > 10 µM | – | -57% | -66% | – | – | > 20 µM | 22% | 31% | 15% | > 10 µM | – | – | –
10 | Oc1c2c(nc3ccccc13)CCCC2 [MMV665843] | -7.59% | – | > 50 µM | 8% | 98% | 100% | 0.894 µM | 101% | > 50 µM | 18% | – | – | – | – | – | –
11 | Cc1cc(NC(=O)c2ccc(-c3ccccc3)cc2)no1 [MMV018984] | -22% | -20% | > 10 µM | – | 101% | 100% | 0.79 µM | – | > 20 µM | 58% | 19% | 101% | – | – | – | –
12 | COc1ccc(N2CCN(C(CNC(=O)CC(C)(C)C)c3ccc4c(c3)OCO4)CC2)cc1 (centres unmarked) [MMV665908] | – | – | – | – | 61% | 66% | – | – | – | – | – | – | – | -9.68% | -10% | –
13 | COCCNC(=O)c1ccc(OC2CCN(Cc3ccc(F)c(F)c3)CC2)c(Cl)c1 [MMV666072] | – | – | – | – | 100% | 102% | – | – | – | – | – | – | – | 90.7% | – | 97%
14 | O=C(Nc1ccccc1O)c1ccc(Oc2cccc(C(=O)Nc3ccccc3O)c2)cc1 [MMV665888] | – | – | – | – | 102% | 104% | – | – | – | – | – | – | – | 98.7% | – | 100%
15 | CCOc1cc2c(cc1OCC)C(c1cc(Cl)c(O)c(OCC)c1)NCC2 (centres unmarked) [MMV000481] | – | – | – | – | 73% | 75% | – | – | – | – | – | – | – | 20.4% | 20% | –
16 | O=C(NC1CCN(Cc2ccccc2)CC1)c1cc2nc(-c3ccc(Cl)s3)cc(C(F)(F)F)n2n1 [MMV396635] | – | – | – | – | 7.6% | 24% | – | – | – | – | – | – | – | -29.6% | -30% | –
17 | COc1ccc(Nc2nc(NCc3ccccc3)c3ccccc3n2)cc1 [MMV000963] | – | – | – | – | 103% | 106% | – | – | – | – | – | – | – | 99.3% | – | 100%
18 | COc1ccc(CCNC(=O)c2cc(S(=O)(=O)N3CC(C)CC(C)C3)ccc2Sc2ccc(F)cc2)cc1OC (centres unmarked) [MMV007557] | – | – | – | – | 19% | 15% | – | – | – | – | – | – | – | -11.7% | -12% | –

Row | SMILES | cytotoxicity at 50 µM (HepG2-A16-CD81EGFP cells [1]; [6]) | cytotoxicity at 50 µM (HepG2-A16-CD81EGFP cells [1]; [7]) | IC50 (HepG2-A16-CD81EGFP cells [1]) | inhibition at 50 µM (HepG2-A16-CD81EGFP cells [1]) | inhibition at 50 µM [2, 8] | inhibition at 50 µM [2, 9] | IC50 [2, 10] | inhibition at 50 µM [2, 11] | IC50 [3] | Emax [3] | inhibition at 10 µM (HepG2-A16-CD81EGFP cells [1]) | inhibition at 10 µM [2] | IC50 [2, 12] | inhibition at 50 µM (HepG2-A16-CD81EGFP cells [4]) | HepG2 Tox% @ 50 uM rep1 (HepG2-A16-CD81EGFP cells [5]) | HepG2 Tox% @ 50 uM rep2 (HepG2-A16-CD81EGFP cells [5])
19 | COc1cccc(Nc2nc(NCCO)c3ccccc3n2)c1 [MMV011944] | – | – | – | – | 103% | 106% | – | – | – | – | – | – | – | 99.7% | 100% | 101%
20 | CCOc1cccc2sc(N(Cc3cccnc3)C(=O)C3CCCCC3)nc12 [MMV001230] | – | – | – | – | 102% | 103% | – | – | – | – | – | – | – | 97.3% | – | 99%
21 | CC1(c2ccccc2)Nc2ccccc2-c2nc3ccccc3n21 (centres unmarked) [MMV396715] | – | – | – | – | 104% | 106% | – | – | – | – | – | – | – | 98.6% | – | 102%
22 | CN(C)c1ccc(N2C(N)=NC(N)=NC2(C)C)cc1 [MMV667487] | – | – | – | – | 71% | 82% | – | – | – | – | – | – | – | -8.72% | -9% | –
23 | CCN1CCN(Cc2ccc(NC(=O)c3cc4ccc5cccnc5c4[nH]3)cc2)CC1 [MMV020548] | – | – | – | – | 102% | 106% | – | – | – | – | – | – | – | 98.4% | – | 100%
24 | CCOC(=O)C1=C(C)N=c2sc(=Cc3ccccc3O)c(=O)n2C1c1ccc(OC)c2ccccc12 (centres unmarked) [MMV666604] | – | – | – | – | 53% | 33% | – | – | – | – | – | – | – | -7.73% | -8% | –
25 | Cn1c(=O)c2cc(C(=O)NCCCN3CCCCCC3)sc2c2ccccc21 [MMV019313] | – | – | – | – | 104% | 106% | – | – | – | – | – | – | – | 99.9% | 100% | –
26 | CCOc1ccc(N2C(N)=NC(N)=NC2(C)C)cc1 [MMV667486] | – | – | – | – | 21% | 22% | – | – | – | – | – | – | – | -13.4% | -13% | –
27 | CN(C)c1ccc(N=Cc2ccc(N3CCOCC3)cc2)cc1 [MMV073843] | – | – | – | – | 88% | 83% | – | – | – | – | – | – | – | -8.32% | -8% | –
28 | COc1ccc2nc(C)cc(Nc3ccc(Cl)cc3)c2c1 [MMV007875] | – | – | – | – | 99% | 101% | – | – | – | – | – | – | – | 94.8% | – | 99%
29 | COc1ccc(-c2cc3c(nn2)-c2ccccc2C3=O)cc1 [MMV666026] | – | – | – | – | 61% | 71% | – | – | – | – | – | – | – | 21.5% | 21% | –
30 | CCN(CC)c1cc(C)c2cc(NC(=O)c3cccc(OC)c3)ccc2n1 [MMV000498] | – | – | – | – | 104% | 106% | – | – | – | – | – | – | – | 99.5% | 100% | 101%
31 | CCOC(=O)C1=C(C)N=c2sc(=Cc3cc(Cl)ccc3O)c(=O)n2C1c1ccc(OC)cc1 (centres unmarked) [MMV665971] | – | – | – | – | 103% | 104% | – | – | – | – | – | – | – | 99.7% | 100% | –
32 | CCC(=O)Nc1nnc(Cc2ccc(OC)c(OC)c2)s1 [MMV020942] | – | – | – | – | -19% | -37% | – | – | – | – | – | – | – | -25.5% | -26% | –
33 | Oc1c(C(Nc2ccccn2)c2cccc(Oc3ccccc3)c2)ccc2cccnc12 (centres unmarked) [MMV665814] | – | – | – | – | -33% | -6% | – | – | – | – | – | – | – | -17.3% | -17% | –
34 | O=C(Nc1ccc(CN2CCOCC2)cc1)c1ccc(-c2cc(Cl)ccc2Cl)o1 [MMV020651] | – | – | – | – | 100% | 99% | – | – | – | – | – | – | – | 93.9% | – | 96%
35 | CCc1ccc(Nc2cc(C)c3ccc(O)cc3n2)cc1 [MMV000570] | – | – | – | – | 103% | 105% | – | – | – | – | – | – | – | 98.1% | – | 100%
